# Source: patent EP3120851A1, “4-AMINO-6-(2,6-DICHLOROPHENYL)-8-METHYL-2-(PHENYLAMINO)-PYRIDO[2,3-D]PYRIMIDIN-7(8H)-ONE FOR TREATMENT OF SOLID CANCERS” (Pangaea Biotech S.L., priority 2015, dated 2017)
# Columns and labels:
# UACC903 = experiment: MTT proliferation assay, single agent; type: cell-based; conditions: Homo sapiens, UACC-903, Melanoma, BRAF V600E, 72 h, mean of several independent experiments
# EGF-R G719C = target: T1, EGF-R G719C (Homo sapiens, UniProt P00533, G719C); experiment: radiometric protein kinase assay (33PanQinase Activity Assay); type: biochemical; conditions: singlicate, read-out: residual activity
# T1 construct: GST or His (not specified per kinase); purchased ProQinase (panel service); host or cells: Sf9 insect cells or E. coli
# Description: (§1) In a first experiment, the kinase inhibition profile of the compound of formula (1) was evaluated at Proqinase (http://www.proqinase.com) by measuring residual activity values at a concentration of 10 µM of the test compound in singlicate in front of the following kinases: ABL2, EPHA3, CSF1-R, DDR2 wt, DDR2 N456 S, EGF-R d746-750, EGF-R d747-752/P753S, EGF-R G719C, EGF-R G719S, EGF-R L858R, EGF-R L861Q, EGF-R wt, EPHA1, EPHA2, EPHB1, ERBB4, LCK, MINK1, RAF1 Y340D/Y341D (untagged), RIPK2, STK17A. In a second experiment, the kinase inhibition profile of the compound of formula (1) was evaluated at Proqinase (http://www.proqinase.com) by measuring residual activity values at a concentration of 0.5 and 10 µM of the test compound in singlicate in front of a panel of 300 kinases using the following protocol:
# (§2) The compounds were dissolved to 1 x 10^-03 M stock solutions in 100% DMSO. Subsequently, 100 µl of each stock solution were transferred into wells A3-F12 of a microtiter plate ("master plate"). Wells A1-F2 were filled with 100 µl 100% DMSO as controls. 5 x 10 µl of the master plate were aliquoted into 5 copy plates, which were stored at -20° Celsius until use. For the testing of each group of up to 8 kinases, one copy plate was used.
# (§3) In the process, 90 µl H2O were added to each well of a copy plate. To minimize precipitation, the H2O was added to each well only a few minutes before the transfer of the compound solutions into the assay plates. The plate was shaken thoroughly, resulting in a "compound dilution plate" with a compound concentration of 1 x 10^-04 M/10 % DMSO. This plate was used for the transfer of 5 µl compound solution into the assay plates. The final volume of the assay was 50 µl. All compounds were tested at 1 x 10^-05 M in singlicate. The final DMSO concentration in the reaction cocktails was 1 % in all cases. The compound dilution plates were disposed at the end of each working day.
# (§4) A radiometric protein kinase assay (^33PanQinase® Activity Assay) was used for measuring the kinase activity of the corresponding protein kinases. All kinase assays were performed in 96-well FlashPlatesTM from Perkin Elmer (Boston, MA, USA) in a 50 µl reaction volume. The reaction cocktail was pipetted in 4 steps in the following order: • 10 µl of non-radioactive ATP solution (in H2O) • 25 µl of assay buffer/ [γ-33P]-ATP mixture • 5 µl of test sample in 10% DMSO • 10 µl of enzyme/substrate mixture
# (§5) The protein kinase reaction cocktails were incubated at 30°C for 60 minutes. The reaction was stopped with 50 µl of 2 % (v/v) H3PO4, plates were aspirated and washed two times with 200 µl 0.9 % (w/v) NaCl. All assays were performed with a BeckmanCoulter Biomek 2000/SL robotic system. Incorporation of ^33Pi (counting of "cpm") was determined with a microplate scintillation counter (Microbeta, Wallac).
# (§6) All protein kinase assays were performed with a BeckmanCoulter Core robotic system.
# (§7) All protein kinases provided by ProQinase were expressed in Sf9 insect cells or in E.coli as recombinant GST-fusion proteins or His-tagged proteins. All kinases were produced from human cDNAs and purified by either GSH-affinity chromatography or immobilized metal. Affinity tags were removed from a number of kinases during purification. The purity of the protein kinases was examined by SDS-PAGE/Coomassie staining, the identity was checked by mass spectroscopy.
# (§8) Kinases from external vendors (CAR = Carna Biosciences Inc.; INV = Life Technologies (Invitrogen Corporation); MIL = Merck-Millipore (Millipore Corporation)) were expressed, purified and quality-controlled by virtue of the vendors readings.
# (§9) For each kinase, the median value of the cpm of six wells of column 1 of each assay plate was defined as "low control" (n=6). This value reflects unspecific binding of radioactivity to the plate in the absence of a protein kinase but in the presence of the substrate. […]
# EPHA1 = target: T2, EPHA1 (Homo sapiens, UniProt P21709); experiment: as above; type: biochemical; conditions: singlicate, read-out: residual activity
# T2 construct: GST or His (not specified per kinase); purchased ProQinase (panel service); host or cells: Sf9 insect cells or E. coli
# Description: as §1, §2, §3, §4, §5, §6, §7, §8, §9
# EPHA3 = target: T3, EPHA3 (Homo sapiens, UniProt P29320); experiment: as above; type: biochemical; conditions: singlicate, read-out: residual activity
# T3 construct: GST or His (not specified per kinase); purchased ProQinase (panel service); host or cells: Sf9 insect cells or E. coli
# Description: as §1, §2, §3, §4, §5, §6, §7, §8, §9
# ERBB4 = target: T4, ERBB4 (Homo sapiens, UniProt Q15303); experiment: as above; type: biochemical; conditions: singlicate, read-out: residual activity
# T4 construct: GST or His (not specified per kinase); purchased ProQinase (panel service); host or cells: Sf9 insect cells or E. coli
# Description: as §1, §2, §3, §4, §5, §6, §7, §8, §9
# DDR2 N456S = target: T5, DDR2 N456S (Homo sapiens, UniProt Q16832, N456S); experiment: as above; type: biochemical; conditions: singlicate, read-out: residual activity
# T5 construct: GST or His (not specified per kinase); purchased ProQinase (panel service); host or cells: Sf9 insect cells or E. coli
# Description: as §1, §2, §3, §4, §5, §6, §7, §8, §9
# EGF-R G719S = target: T6, EGF-R G719S (Homo sapiens, UniProt P00533, G719S); experiment: as above; type: biochemical; conditions: singlicate, read-out: residual activity
# T6 construct: GST or His (not specified per kinase); purchased ProQinase (panel service); host or cells: Sf9 insect cells or E. coli
# Description: as §1, §2, §3, §4, §5, §6, §7, §8, §9
# LCK = target: T7, LCK (Homo sapiens, UniProt P06239); experiment: as above; type: biochemical; conditions: singlicate, read-out: residual activity
# T7 construct: GST or His (not specified per kinase); purchased ProQinase (panel service); host or cells: Sf9 insect cells or E. coli
# Description: as §1, §2, §3, §4, §5, §6, §7, §8, §9
# ABL2 = target: T8, ABL2 (Homo sapiens, UniProt P42684); experiment: as above; type: biochemical; conditions: singlicate, read-out: residual activity
# T8 construct: GST or His (not specified per kinase); purchased ProQinase (panel service); host or cells: Sf9 insect cells or E. coli
# Description: as §1, §2, §3, §4, §5, §6, §7, §8, §9
# [1] = target: T9, RAF1 Y340D/Y341D (untagged) (Homo sapiens, UniProt P04049, Y340D/Y341D); experiment: as above; type: biochemical; conditions: singlicate, read-out: residual activity
# T9 construct: purchased ProQinase (panel service); host or cells: Sf9 insect cells or E. coli
# Description: as §1, §2, §3, §4, §5, §6, §7, §8, §9
# EPHA2 = target: T10, EPHA2 (Homo sapiens, UniProt P29317); experiment: as above; type: biochemical; conditions: singlicate, read-out: residual activity
# T10 construct: GST or His (not specified per kinase); purchased ProQinase (panel service); host or cells: Sf9 insect cells or E. coli
# Description: as §1, §2, §3, §4, §5, §6, §7, §8, §9
# EGF-R L858R = target: T11, EGF-R L858R (Homo sapiens, UniProt P00533, L858R); experiment: as above; type: biochemical; conditions: singlicate, read-out: residual activity
# T11 construct: GST or His (not specified per kinase); purchased ProQinase (panel service); host or cells: Sf9 insect cells or E. coli
# Description: as §1, §2, §3, §4, §5, §6, §7, §8, §9
# EGF-R wt = target: T12, EGF-R wt (Homo sapiens, UniProt P00533); experiment: as above; type: biochemical; conditions: singlicate, read-out: residual activity
# T12 construct: GST or His (not specified per kinase); purchased ProQinase (panel service); host or cells: Sf9 insect cells or E. coli
# Description: as §1, §2, §3, §4, §5, §6, §7, §8, §9
# EGF-R d747-752/P753S = target: T13, EGF-R d747-752/P753S (Homo sapiens, UniProt P00533, DEL747-752/P753S); experiment: as above; type: biochemical; conditions: singlicate, read-out: residual activity
# T13 construct: GST or His (not specified per kinase); purchased ProQinase (panel service); host or cells: Sf9 insect cells or E. coli
# Description: as §1, §2, §3, §4, §5, §6, §7, §8, §9
# T6 sequence (P00533 25-1210 G719S): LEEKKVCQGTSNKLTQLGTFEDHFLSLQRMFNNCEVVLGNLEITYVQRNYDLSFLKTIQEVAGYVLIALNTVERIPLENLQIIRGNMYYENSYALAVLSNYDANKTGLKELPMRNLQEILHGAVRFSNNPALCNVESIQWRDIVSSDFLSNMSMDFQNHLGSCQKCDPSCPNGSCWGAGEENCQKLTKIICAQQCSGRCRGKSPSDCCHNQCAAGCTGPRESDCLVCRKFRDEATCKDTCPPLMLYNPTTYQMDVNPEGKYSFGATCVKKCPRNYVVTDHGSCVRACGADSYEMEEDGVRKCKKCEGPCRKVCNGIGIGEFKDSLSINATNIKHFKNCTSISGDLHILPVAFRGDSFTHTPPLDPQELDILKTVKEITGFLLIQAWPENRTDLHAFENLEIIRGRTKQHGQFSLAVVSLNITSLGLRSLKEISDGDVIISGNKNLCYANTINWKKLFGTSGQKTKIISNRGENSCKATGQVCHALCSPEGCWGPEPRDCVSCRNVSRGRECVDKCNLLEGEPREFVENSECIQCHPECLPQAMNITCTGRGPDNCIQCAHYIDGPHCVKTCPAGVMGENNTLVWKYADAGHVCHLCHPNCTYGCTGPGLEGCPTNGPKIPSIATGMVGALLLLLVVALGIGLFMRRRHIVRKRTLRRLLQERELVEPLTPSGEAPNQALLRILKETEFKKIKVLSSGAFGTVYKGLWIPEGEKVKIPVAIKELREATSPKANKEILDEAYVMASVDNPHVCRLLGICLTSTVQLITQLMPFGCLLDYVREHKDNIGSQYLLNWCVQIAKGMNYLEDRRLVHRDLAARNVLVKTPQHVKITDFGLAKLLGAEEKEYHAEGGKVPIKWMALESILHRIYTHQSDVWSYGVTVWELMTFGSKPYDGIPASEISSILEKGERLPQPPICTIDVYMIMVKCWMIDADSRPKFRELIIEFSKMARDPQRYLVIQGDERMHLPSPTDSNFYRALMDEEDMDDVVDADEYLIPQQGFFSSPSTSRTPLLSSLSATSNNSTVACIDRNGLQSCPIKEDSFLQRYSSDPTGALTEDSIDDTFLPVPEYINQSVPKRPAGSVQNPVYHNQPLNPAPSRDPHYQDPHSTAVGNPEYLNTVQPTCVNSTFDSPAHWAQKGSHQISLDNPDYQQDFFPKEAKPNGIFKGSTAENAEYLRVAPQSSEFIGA
# T2 sequence (P21709 26-976): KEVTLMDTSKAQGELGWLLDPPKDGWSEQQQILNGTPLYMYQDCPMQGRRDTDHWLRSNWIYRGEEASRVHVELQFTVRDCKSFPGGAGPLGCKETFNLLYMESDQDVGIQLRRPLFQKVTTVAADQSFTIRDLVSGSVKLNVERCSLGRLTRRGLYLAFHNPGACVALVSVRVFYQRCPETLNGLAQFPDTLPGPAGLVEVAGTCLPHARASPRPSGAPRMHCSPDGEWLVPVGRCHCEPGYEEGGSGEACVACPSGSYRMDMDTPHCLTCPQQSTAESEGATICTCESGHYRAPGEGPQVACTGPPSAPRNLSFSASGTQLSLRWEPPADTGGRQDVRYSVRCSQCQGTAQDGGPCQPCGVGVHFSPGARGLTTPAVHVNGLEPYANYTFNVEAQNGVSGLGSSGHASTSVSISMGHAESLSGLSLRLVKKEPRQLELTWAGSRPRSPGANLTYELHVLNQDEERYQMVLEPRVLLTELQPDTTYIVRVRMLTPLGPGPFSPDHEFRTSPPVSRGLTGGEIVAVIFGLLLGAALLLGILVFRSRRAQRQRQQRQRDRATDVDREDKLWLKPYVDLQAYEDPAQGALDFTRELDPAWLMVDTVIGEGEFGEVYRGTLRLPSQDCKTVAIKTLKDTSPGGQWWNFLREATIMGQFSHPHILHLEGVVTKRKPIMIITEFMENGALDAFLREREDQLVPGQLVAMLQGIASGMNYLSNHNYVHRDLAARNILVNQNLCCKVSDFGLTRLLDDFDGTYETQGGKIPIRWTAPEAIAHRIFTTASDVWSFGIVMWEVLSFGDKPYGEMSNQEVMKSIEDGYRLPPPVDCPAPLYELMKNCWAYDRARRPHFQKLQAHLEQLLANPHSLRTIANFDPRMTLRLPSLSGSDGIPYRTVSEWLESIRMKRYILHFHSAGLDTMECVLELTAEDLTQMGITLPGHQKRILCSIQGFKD
# T5 sequence (Q16832 22-855 N456S): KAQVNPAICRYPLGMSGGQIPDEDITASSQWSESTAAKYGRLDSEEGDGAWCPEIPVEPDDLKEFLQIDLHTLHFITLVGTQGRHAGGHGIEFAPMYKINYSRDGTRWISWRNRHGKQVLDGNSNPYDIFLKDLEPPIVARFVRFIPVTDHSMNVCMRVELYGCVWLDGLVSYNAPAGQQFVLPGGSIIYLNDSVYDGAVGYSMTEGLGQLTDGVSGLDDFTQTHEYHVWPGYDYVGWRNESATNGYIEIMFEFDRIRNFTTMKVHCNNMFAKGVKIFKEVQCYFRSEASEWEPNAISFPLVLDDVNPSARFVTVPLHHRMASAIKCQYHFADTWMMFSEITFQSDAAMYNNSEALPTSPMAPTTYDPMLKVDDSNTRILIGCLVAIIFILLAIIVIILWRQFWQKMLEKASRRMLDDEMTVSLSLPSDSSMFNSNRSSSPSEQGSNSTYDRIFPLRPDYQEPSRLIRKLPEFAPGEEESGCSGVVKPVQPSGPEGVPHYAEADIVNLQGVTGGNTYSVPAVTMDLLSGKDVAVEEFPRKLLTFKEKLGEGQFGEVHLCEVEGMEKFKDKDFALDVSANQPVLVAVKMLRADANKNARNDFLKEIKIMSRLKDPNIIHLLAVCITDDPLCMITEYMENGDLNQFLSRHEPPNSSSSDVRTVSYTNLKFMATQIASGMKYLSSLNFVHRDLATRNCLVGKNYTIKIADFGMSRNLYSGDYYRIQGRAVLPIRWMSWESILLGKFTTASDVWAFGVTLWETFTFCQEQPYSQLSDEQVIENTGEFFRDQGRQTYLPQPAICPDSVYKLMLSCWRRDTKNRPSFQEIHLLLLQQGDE
# T9 sequence (P04049 whole entry Y340D/Y341D): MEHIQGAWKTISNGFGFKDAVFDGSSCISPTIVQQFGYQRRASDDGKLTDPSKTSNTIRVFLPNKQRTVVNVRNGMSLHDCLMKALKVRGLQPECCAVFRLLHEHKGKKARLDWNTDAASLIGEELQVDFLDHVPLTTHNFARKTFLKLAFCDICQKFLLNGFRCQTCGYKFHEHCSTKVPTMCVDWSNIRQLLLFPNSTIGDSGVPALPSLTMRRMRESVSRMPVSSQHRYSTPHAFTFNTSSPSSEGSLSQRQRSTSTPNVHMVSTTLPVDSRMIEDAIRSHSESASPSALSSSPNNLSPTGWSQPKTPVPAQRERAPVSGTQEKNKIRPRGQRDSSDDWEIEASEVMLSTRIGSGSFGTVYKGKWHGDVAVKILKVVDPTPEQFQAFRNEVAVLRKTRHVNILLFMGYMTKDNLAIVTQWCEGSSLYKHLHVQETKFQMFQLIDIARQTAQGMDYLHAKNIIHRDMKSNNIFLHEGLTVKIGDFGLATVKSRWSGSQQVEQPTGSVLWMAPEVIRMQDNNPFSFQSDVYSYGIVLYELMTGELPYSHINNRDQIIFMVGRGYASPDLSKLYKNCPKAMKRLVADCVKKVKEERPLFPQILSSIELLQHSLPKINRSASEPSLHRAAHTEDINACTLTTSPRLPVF
# T13 sequence (P00533 with tags, fused parts or gaps DEL747-752/P753S limits assumed): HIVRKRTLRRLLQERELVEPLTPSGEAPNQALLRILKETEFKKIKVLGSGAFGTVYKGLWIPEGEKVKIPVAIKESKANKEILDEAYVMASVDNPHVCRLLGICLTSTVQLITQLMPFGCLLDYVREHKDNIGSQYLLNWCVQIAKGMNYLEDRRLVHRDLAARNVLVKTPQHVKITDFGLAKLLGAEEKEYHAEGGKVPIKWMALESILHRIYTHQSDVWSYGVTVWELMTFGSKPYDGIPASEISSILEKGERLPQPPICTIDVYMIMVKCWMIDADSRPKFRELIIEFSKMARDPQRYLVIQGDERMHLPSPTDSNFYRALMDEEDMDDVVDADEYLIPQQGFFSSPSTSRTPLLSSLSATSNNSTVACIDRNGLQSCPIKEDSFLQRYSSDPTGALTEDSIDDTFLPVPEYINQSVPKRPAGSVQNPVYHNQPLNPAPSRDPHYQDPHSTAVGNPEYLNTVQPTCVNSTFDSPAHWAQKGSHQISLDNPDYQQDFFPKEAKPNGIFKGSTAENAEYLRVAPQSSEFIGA
# T10 sequence (P29317 24-976): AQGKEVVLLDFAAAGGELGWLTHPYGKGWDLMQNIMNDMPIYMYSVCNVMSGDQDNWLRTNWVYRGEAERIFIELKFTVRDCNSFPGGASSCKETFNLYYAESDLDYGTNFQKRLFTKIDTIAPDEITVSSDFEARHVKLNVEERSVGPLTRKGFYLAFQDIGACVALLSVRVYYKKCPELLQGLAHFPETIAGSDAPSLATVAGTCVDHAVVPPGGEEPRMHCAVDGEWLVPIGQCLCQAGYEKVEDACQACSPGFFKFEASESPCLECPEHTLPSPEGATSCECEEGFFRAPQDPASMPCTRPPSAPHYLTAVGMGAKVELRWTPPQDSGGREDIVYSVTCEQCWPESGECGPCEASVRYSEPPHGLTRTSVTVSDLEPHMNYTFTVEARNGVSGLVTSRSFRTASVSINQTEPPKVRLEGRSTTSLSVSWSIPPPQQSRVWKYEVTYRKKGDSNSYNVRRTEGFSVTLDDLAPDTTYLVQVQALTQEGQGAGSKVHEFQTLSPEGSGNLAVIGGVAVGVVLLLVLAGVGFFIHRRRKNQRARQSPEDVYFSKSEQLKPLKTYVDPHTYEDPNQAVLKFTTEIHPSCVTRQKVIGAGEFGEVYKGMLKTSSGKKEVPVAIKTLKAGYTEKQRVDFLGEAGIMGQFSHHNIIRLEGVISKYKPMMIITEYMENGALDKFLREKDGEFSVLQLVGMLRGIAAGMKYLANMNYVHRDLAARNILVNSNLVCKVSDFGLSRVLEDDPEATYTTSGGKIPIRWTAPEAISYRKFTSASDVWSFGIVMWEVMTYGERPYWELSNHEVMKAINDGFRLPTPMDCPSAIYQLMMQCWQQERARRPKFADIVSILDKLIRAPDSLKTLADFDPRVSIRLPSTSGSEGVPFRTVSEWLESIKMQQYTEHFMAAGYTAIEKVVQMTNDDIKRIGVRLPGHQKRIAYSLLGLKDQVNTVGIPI
smiles,measurement,setting,value
"Cn1c(=O)c(-c2c(Cl)cccc2Cl)cc2c(N)nc(Nc3ccccc3)nc21 [Compound (1), 4-amino-6-(2,6-dichlorophenyl)-8-methyl-2-(phenylamino)-pyrido[2,3-d]pyrimidin-7(8H)-one]",IC50,UACC903,3.35 µM
same,remaining activity at 0.5 µM,EGF-R G719C; 0.5 µM test compound,29%
same,remaining activity at 10 µM,EGF-R G719C; 10 µM test compound,6%
same,remaining activity at 0.5 µM,EPHA1; 0.5 µM test compound,54%
same,remaining activity at 10 µM,EPHA1; 10 µM test compound,13%
same,remaining activity at 0.5 µM,EPHA3; 0.5 µM test compound,9%
same,remaining activity at 10 µM,EPHA3; 10 µM test compound,36%
same,remaining activity at 0.5 µM,ERBB4; 0.5 µM test compound,52%
same,remaining activity at 10 µM,ERBB4; 10 µM test compound,7%
same,remaining activity at 0.5 µM,DDR2 N456S; 0.5 µM test compound,10%
same,remaining activity at 10 µM,DDR2 N456S; 10 µM test compound,6%
same,remaining activity at 0.5 µM,EGF-R G719S; 0.5 µM test compound,39%
same,remaining activity at 10 µM,EGF-R G719S; 10 µM test compound,3%
same,remaining activity at 0.5 µM,LCK; 0.5 µM test compound,50%
same,remaining activity at 10 µM,LCK; 10 µM test compound,5%
same,remaining activity at 0.5 µM,ABL2; 0.5 µM test compound,44%
same,remaining activity at 10 µM,ABL2; 10 µM test compound,13%
same,remaining activity at 0.5 µM,[1]; 0.5 µM test compound,57%
same,remaining activity at 10 µM,[1]; 10 µM test compound,25%
same,remaining activity at 0.5 µM,EPHA2; 0.5 µM test compound,54%
same,remaining activity at 10 µM,EPHA2; 10 µM test compound,9%
same,remaining activity at 0.5 µM,EGF-R L858R; 0.5 µM test compound,49%
same,remaining activity at 10 µM,EGF-R L858R; 10 µM test compound,10%
same,remaining activity at 0.5 µM,EGF-R wt; 0.5 µM test compound,47%
same,remaining activity at 10 µM,EGF-R wt; 10 µM test compound,16%
same,remaining activity at 0.5 µM,EGF-R d747-752/P753S; 0.5 µM test compound,47%
same,remaining activity at 10 µM,EGF-R d747-752/P753S; 10 µM test compound,15%
